Source: the supplement of paper PMC10307832

What was measured:
Experiment in all cases: relative viability (nuclei count vs DMSO), 5 days (fraction); higher = more cells survive
[1] = compound: C1CSC2=C(C(=O)N1)SC3=C2C=C(C=C3)O [kb NB 142-70] + CS(=O)(=O)CCNCc1ccc(-c2ccc3ncnc(Nc4ccc(OCc5cccc(F)c5)c(Cl)c4)c3c2)o1 [Lapatinib] (partner 2 µM)
Summary of the method: (§1)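 Five library-drug doses in √10 steps were combined with a fixed anchor-drug dose, or a single drug was given alone, by pin tool to lung cancer cell lines in 1536-well plates the day after seeding. Nuclei were stained and counted after 5 days. Relative viability is the nuclei count in treated wells over that in vehicle wells, taken as the median of duplicate plates.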

[2] = compound: C1CSC2=C(C(=O)N1)SC3=C2C=C(C=C3)O [kb NB 142-70] + CC1(C)CCC(c2ccc(Cl)cc2)=C(CN2CCN(c3ccc(C(=O)NS(=O)(=O)c4ccc(N[C@H](CCN5CCOCC5)CSc5ccccc5)c(S(=O)(=O)C(F)(F)F)c4)cc3)CC2)C1 [Navitoclax] (partner 0.5 µM)
Summary of the method: as §1

[3] = compound: C1CSC2=C(C(=O)N1)SC3=C2C=C(C=C3)O [kb NB 142-70] + NC(=O)Nc1cc(-c2cccc(F)c2)sc1C(=O)N[C@H]1CCCNC1 [AZD7762] (partner 0.2 µM)
Summary of the method: as §1

[4] = compound: C1CSC2=C(C(=O)N1)SC3=C2C=C(C=C3)O [kb NB 142-70] + CS(=O)(=O)N1CCN(Cc2cc3nc(-c4cccc5[nH]ncc45)nc(N4CCOCC4)c3s2)CC1 [Pictilisib] (partner 1 µM)
Summary of the method: as §1

[5] = compound: NCC(=O)Nc1ccc(-n2nc(C(F)(F)F)cc2-c2ccc3c(ccc4ccccc43)c2)cc1 + CCNC(=O)c1noc(-c2cc(C(C)C)c(O)cc2O)c1-c1ccc(CN2CCOCC2)cc1 [Luminespib] (partner 0.01 µM)
Summary of the method: as §1

Cell Line	relative viability ([1]; first compound 0.1 µM)	relative viability ([1]; first compound 1 µM)	relative viability ([1]; first compound 3.162 µM)	relative viability ([2]; first compound 0.1 µM)	relative viability ([2]; first compound 1 µM)	relative viability ([2]; first compound 3.162 µM)	relative viability ([3]; first compound 0.1 µM)	relative viability ([3]; first compound 1 µM)	relative viability ([3]; first compound 3.162 µM)	relative viability ([4]; first compound 0.1 µM)	relative viability ([4]; first compound 1 µM)	relative viability ([4]; first compound 3.162 µM)	relative viability ([5]; first compound 0.02 µM)	relative viability ([5]; first compound 0.06325 µM)	relative viability ([5]; first compound 0.2 µM)	relative viability ([5]; first compound 0.6325 µM)	relative viability ([5]; first compound 2 µM)
NCI-H1755	1.02	1.04	1.02	0.996	1.01	1.05	0.436	0.447	0.431	0.462	0.504	0.431	0.449	0.621	0.305	0.426	0.541
HCC-78	0.919	0.941	0.744	0.752	0.742	0.652	0.616	0.629	0.684	0.213	0.216	0.181					
IA-LM	0.771	0.95	0.787	0.807	0.843	0.651				0.412	0.529	0.51					
NCI-H322M	0.568	0.646	0.617	1.2	1.15	1.11	0.634	0.707	0.846	0.54	0.561	0.504	0.919	0.946	0.895	0.917	0.855
COR-L23	0.972	1	0.586	0.941	1.08	0.324				0.765	0.807	0.251	0.599	0.652	0.772	0.57	0.757
NCI-H2023	0.809	0.758	0.486	0.983	1	0.644				0.258	0.207	0.227	0.681	0.906	0.972	0.739	0.758
COR-L 105	0.382	0.427	0.361	0.746	0.828	0.727				0.376	0.392	0.37	0.915	0.78	1.01	0.704	1.15
NCI-H650	1.05	1.17	0.657				0.999	1.09	0.774	1.05	0.94	0.756	0.725	0.878	0.867	0.734	0.973
NCI-H520	0.826	0.848	0.464	1.07	1.19	0.482				0.297	0.282	0.165	0.193	0.179	0.198	0.239	0.229
SK-LU-1	0.865	0.802	0.527	0.747	0.642	0.178				0.608	0.484	0.324	0.208	0.182	0.193	0.206	0.18
ChaGo-K-1				1.17	1.11	0.885	0.896	0.873	0.888	0.894	0.807	0.523	0.614	0.501	0.54	0.548	0.567
